The target in one series is T1, RAR gamma (Homo sapiens, UniProt P13631).
T1 sequence (P13631 1-454): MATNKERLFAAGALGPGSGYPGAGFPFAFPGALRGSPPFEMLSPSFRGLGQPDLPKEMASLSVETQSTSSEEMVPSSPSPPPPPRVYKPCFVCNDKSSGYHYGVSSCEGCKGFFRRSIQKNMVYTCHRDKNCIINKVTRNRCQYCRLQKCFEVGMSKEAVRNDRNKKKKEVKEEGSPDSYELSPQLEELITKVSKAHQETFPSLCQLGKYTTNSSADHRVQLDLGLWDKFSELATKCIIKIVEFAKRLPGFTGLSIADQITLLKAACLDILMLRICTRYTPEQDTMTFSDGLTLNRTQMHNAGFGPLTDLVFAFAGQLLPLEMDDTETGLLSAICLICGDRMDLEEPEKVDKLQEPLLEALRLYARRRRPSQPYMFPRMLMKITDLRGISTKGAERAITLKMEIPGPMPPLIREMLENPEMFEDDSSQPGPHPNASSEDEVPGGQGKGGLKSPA
As to the kind of experiment: Ligand binding assay, retinoid receptors (Apfel et al.), RAR gamma. Conditions: third value of the cell, read-out: IC50 nM (alpha/beta/gamma): gamma. From the text: (§1) The retinoic acid receptor agonist selectivity of a compound of the invention may be determined by using ligand binding assays known to the skilled artisan (Apfel et al., Proc. Natl. Acad. Sci., (1992), 89, 7129; Teng et al., J. Med. Chem., (1997), 40, 2445; Bryce et al., U.S. Pat. No. 5,807,900 which are herein incorporated by reference). Treatment with RAR agonists, particularly RAR γ agonists may promote repair of alveolar matrix and septation, which are in important in treating emphysema. Preferably, compounds of the invention are γ selective agonists that bind to the γ receptor with affinities between about 25 nm and about 1000 nm and show a five to ten fold selectivity over binding to the RAR α receptor. It should be noted that RAR agonists that are not γ selective may be effective in treating emphysema. Transactivation, which is the ability of a retinoid to activate gene transcription when gene transcription is initiated by the binding of a ligand to the particular retinoic acid receptor being tested, may be determined by using methods described in the art (Apfel et al., Proc. Natl. Acad. Sci., (1992), 89, 7129; Bernard et al., Biochem. And Biophys. Res. Comm., (1992), 186, 977 which is herein incorporated by reference.
(§2) The RAR α antagonist selectivity of compounds of the invention was determined by the ligand binding assays described in C. Apfel et al. Proc. Nat. Sci. Acad. (USA), 89:7129-7133 (1992).

The target of another series is T2, RAR α (Homo sapiens, UniProt P10276).
T2 sequence (P10276 1-462): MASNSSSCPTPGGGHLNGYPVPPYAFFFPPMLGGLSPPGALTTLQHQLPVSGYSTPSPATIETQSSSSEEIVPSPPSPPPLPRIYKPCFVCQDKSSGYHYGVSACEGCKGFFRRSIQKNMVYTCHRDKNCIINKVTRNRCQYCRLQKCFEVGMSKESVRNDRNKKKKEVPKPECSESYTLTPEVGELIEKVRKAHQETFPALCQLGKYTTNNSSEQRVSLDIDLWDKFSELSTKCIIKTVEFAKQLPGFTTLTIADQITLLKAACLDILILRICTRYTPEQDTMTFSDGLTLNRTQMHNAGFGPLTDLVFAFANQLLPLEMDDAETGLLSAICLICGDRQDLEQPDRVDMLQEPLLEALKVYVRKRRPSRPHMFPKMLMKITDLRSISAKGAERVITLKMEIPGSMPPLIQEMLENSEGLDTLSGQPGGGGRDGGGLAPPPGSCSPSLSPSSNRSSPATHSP
As to the kind of experiment: Ligand binding assay, retinoid receptors (Apfel et al.), RAR alpha. The note with it: first value of the cell, read-out: IC50 nM (alpha/beta/gamma): alpha.
Source text: as §1, §2

The next series concerns the target T3, RAR beta (Homo sapiens, UniProt P10826).
T3 sequence (P10826 1-455): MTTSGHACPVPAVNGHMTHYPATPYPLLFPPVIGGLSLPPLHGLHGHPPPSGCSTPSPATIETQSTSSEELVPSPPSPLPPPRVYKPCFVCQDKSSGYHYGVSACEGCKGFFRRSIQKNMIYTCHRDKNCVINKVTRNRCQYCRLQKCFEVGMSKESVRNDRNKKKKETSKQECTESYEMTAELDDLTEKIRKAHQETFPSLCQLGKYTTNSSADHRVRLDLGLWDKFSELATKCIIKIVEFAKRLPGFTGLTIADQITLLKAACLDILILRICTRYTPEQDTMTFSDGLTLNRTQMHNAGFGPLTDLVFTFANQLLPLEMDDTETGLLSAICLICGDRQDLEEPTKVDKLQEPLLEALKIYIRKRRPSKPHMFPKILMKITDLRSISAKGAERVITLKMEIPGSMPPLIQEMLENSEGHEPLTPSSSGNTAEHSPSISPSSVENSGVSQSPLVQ
As to the kind of experiment: Ligand binding assay, retinoid receptors (Apfel et al.), RAR beta. Conditions: second value of the cell, read-out: IC50 nM (alpha/beta/gamma): beta.
Source text: as §1, §2

The structures appear in SMILES notation.

As for `COCCCc1cc2c(cc1/C=C/c1ccc(C(=O)O)cc1)C(C)(C)CCC2(C)C` [Compound 11, 4-{(E)-2-[3-(3-methoxypropyl}-5,8,8-tetramethyl-5,6,7,8-tetrahydro-naphthalen-2-yl]vinyl}benzoic acid], the melting point – broadly, the temperature, or range, at which the solid turns liquid – lay within 164.7 to 166 °C. The IC50 on RAR gamma was 210 nM. For the same molecule, at RAR α, the IC50 worked out at 1800 nM. Moreover, the IC50 at RAR beta was determined as 1400 nM.
`CCC(C)CSCc1cc2c(cc1/C=C/c1ccc(C(=O)O)cc1)C(C)(C)CCC2(C)C` (centres unmarked) [Compound 3] registered a melting point of 66.1 to 68.5 °C. For the same molecule, the IC50 at RAR gamma was 260 nM. Besides, on RAR α, the IC50 was determined as 200 nM. Besides, the IC50 on RAR beta came out at 100 nM.
Molecule `CC1(C)CCC(C)(C)c2cc(CSCc3ccco3)c(/C=C/c3ccc(C(=O)O)cc3)cc21` [Compound 8] yielded a melting point of 169.7 to 171 °C. Moreover, on RAR gamma, the IC50 amounted to 26 nM. Also, the IC50 on RAR α turned out to be 810 nM. In addition, the IC50 on RAR beta was 450 nM.
Turning to `COCc1cc2c(cc1/C=C/c1ccc(C(=O)O)cc1)C(C)(C)CCC2(C)C` [Compound 1], the melting point is 184.2 to 187.9 °C. Further, on RAR gamma, the IC50 is 1700 nM. For the same molecule, the IC50 at RAR α amounted to 3600 nM. Moreover, the IC50 on RAR beta is 1600 nM.
With `CC1(C)CCC(C)(C)c2cc(Cn3cccc3)c(/C=C/c3ccc(C(=O)O)cc3)cc21` [Compound 7, 4-[(E)-2-(5,5,8,8-tetramethyl-3-pyrrol-1-ylmethyl-5,6,7,8-tetrahydro-naphthalen-2-yl)vinyl]benzoic acid], the melting point lay in the range of 255.6 to 257.4 °C. The IC50 at RAR gamma turned out to be 17 nM. Moreover, at RAR α, the IC50 came to 260 nM. Also, the IC50 at RAR beta amounted to 140 nM.
`CCCCSCc1cc2c(cc1/C=C/c1ccc(C(=O)O)cc1)C(C)(C)CCC2(C)C` [Compound 2, 4-[(E)-2-(3-Butylthiomethyl-5,5,8,8-tetramethyl-5,6,7,8-tetrahydro-naphthalen-2-yl)vinyl]benzoic acid]: the results for the IC50 at RAR gamma, on RAR α and at RAR beta were 190 nM, 1000 nM and 320 nM, respectively.
The matching figures for `Cn1nnnc1SCc1cc2c(cc1/C=C/c1ccc(C(=O)O)cc1)C(C)(C)CCC2(C)C` [Compound 25]: 230 nM, 190 nM and 100 nM.
The matching figures for `CC1(C)CCC(C)(C)c2cc(CO)c(/C=C/c3ccc(C(=O)O)cc3)cc21` [Compound 15]: 1800 nM, 1000 nM and 1000 nM.
Take `Cc1cnn(Cc2cc3c(cc2/C=C/c2ccc(C(=O)O)cc2)C(C)(C)CCC3(C)C)c1` [Compound 20]: the IC50 was 670 nM at RAR gamma, 950 nM on RAR α and 620 nM on RAR beta.

(Values after patent US6777418B2, “Retinoid compounds (I)” (Syntex (U.S.A.) LLC, priority 2000, dated 2004).)
